The test system of one experiment is FAK Tyr 925. The experiment is described as follows: Intracellular phosphorylation levels: FAK Tyr 925. The note with it: c-Src/NIH-3T3 and HT-29 cells; FIG. 2. The experiment is classed as cell-based. How it is done:
(§1) HT29 (colon cancer) and c-Src527F/NIH-3T3 (Src transformed) cell lines were treated with KX2-391 or with AstraZeneca's ATP competitive Src inhibitor AZ28. AZ28 serves as a positive comparator to show what a validated Src inhibitor should do in these assays. After treatment with compound, cells were lysed, subjected to PAGE and probed with a battery of antibodies. […] In addition, off-target protein phosphorylation was also investigated. Further, induction of apoptosis was evaluated via Caspase 3 cleavage. Multiple doses of each compound were tested because the trends in response to increasing drug concentration are the most reliable indicator of activity.
(§2) The same range of multiples of the GI50 for AZ28 in these two cell lines was run as a comparison.

A further experiment concerns She Y239/240. The experiment is described as follows: Intracellular phosphorylation levels: She Y239/240. Format: cell-based. The note with it: c-Src/NIH-3T3 and HT-29 cells; FIG. 3. The protocol: as §1, §2
In a further experiment the test system is FAK Y397. The experiment is described as follows: FAK autophosphorylation in cells. The experiment is classed as cell-based. The note with it: c-Src527F/NIH3T3 cells; FIG. 8. How it is done:
as §1, §2
FAK Y397 is mainly a FAK autophosphorylation site and only a poor Src transphorylation site. AZ28 is […] FAK inhibitor (see isolated enzyme data in Table 5). However, no inhibition of FAK autophosphorylation in c-Src527F/NIH3T3 cells is seen with KX-391.

The next experiment deals with Paxillin Y-31. Put plainly: Intracellular phosphorylation levels: Paxillin Y-31. The note with it: c-Src/NIH-3T3 cells; FIG. 4. The experiment is classed as cell-based. How it is done: as §1, §2
Note: paxillin Y-31 was not detected in HT29 cells with or without added drug.

The subject of the next experiment is PI3 kinase. The experiment is described as follows: Inhibition of isolated kinases. The experiment is classed as biochemical. The note with it: compound @ 10 μM. The text has this: (§3) Table 5 illustrates percent activity of isolated kinases in the presence of the AstraZeneca ATP-competitive inhibitor (KX-328, AZ-28) or KX2-391 relative to control (untreated) isolated kinases.

Another experiment concerns the target Abl(h) (Homo sapiens, UniProt P00519). The experiment is described as follows: Inhibition of isolated kinases. Format: biochemical. The note with it: compound @ 10 μM.
Excerpt: as §3

The target in the next experiment is ZAP-70(h) (Homo sapiens, UniProt P43403). Put plainly: Inhibition of isolated kinases. The experiment is classed as biochemical. The note with it: compound @ 10 μM.
Excerpt: as §3

For another experiment, the target named is IR(h) (Homo sapiens, UniProt P06213). The experiment is described as follows: Inhibition of isolated kinases. Format: biochemical. The note with it: compound @ 10 μM.
IR(h), sequence (P06213 28-1382): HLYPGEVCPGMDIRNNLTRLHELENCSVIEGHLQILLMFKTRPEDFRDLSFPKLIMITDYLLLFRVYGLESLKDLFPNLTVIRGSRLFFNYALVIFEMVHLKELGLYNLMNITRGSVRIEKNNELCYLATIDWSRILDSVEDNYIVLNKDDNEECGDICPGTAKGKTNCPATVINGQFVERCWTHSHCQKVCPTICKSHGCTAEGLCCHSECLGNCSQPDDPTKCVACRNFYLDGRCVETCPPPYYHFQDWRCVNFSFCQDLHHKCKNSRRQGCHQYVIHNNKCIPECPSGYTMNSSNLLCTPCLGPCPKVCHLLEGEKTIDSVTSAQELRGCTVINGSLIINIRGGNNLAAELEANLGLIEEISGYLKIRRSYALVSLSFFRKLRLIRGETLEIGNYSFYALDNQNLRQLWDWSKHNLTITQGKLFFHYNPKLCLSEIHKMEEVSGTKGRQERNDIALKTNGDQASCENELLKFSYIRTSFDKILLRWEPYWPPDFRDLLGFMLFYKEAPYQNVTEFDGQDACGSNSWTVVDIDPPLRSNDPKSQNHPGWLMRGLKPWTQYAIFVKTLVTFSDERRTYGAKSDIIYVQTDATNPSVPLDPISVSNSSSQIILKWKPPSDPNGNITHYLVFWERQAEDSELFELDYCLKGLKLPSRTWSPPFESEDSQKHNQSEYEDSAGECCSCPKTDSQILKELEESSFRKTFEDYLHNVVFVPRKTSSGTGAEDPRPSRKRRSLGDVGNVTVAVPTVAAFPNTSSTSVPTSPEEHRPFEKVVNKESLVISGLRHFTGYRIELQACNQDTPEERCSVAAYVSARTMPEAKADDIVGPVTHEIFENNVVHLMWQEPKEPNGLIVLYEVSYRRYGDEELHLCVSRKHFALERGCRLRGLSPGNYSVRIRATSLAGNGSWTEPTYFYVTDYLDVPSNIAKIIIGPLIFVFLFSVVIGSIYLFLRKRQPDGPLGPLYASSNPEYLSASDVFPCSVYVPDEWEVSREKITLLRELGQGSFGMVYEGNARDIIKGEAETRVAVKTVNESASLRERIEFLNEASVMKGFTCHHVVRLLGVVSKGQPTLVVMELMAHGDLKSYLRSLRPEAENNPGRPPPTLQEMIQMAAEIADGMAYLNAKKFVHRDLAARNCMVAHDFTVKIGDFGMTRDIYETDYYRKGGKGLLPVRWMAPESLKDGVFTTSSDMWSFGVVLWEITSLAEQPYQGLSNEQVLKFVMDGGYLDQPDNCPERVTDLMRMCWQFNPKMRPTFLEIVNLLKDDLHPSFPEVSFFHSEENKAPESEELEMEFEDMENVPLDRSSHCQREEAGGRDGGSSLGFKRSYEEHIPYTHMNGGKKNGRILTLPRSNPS
Excerpt: as §3

The target of the next experiment is IGF-1R(h) (Homo sapiens, UniProt P08069). Put plainly: Inhibition of isolated kinases. The experiment is classed as biochemical. The note with it: compound @ 10 μM.
Excerpt: as §3

For another experiment, the target named is FGFR2(h) (Homo sapiens, UniProt P21802). Put plainly: Inhibition of isolated kinases. Format: biochemical. The note with it: compound @ 10 μM.
FGFR2(h), sequence (P21802 22-821): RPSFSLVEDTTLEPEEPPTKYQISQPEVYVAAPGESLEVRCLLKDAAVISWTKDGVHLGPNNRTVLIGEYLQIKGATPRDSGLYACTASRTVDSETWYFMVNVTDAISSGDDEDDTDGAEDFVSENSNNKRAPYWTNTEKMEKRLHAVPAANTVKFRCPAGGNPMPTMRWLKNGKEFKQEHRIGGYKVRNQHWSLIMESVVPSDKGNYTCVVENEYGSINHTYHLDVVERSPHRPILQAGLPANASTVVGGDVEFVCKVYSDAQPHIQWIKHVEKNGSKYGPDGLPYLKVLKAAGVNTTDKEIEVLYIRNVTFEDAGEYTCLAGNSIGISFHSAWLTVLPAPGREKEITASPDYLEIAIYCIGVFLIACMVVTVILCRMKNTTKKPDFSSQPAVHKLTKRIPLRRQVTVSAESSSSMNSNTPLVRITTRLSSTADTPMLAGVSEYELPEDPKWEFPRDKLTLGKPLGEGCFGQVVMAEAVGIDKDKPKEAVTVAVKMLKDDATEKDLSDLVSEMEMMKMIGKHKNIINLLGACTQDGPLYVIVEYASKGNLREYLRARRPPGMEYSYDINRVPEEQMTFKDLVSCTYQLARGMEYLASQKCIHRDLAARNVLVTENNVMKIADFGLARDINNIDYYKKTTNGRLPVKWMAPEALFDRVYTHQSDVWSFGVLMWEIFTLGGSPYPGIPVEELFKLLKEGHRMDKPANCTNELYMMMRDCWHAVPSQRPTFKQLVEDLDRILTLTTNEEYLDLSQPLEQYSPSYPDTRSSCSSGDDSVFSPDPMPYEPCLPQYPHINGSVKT
Excerpt: as §3

The target of a further experiment is PKCα(h) (Homo sapiens, UniProt P17252). The experiment is described as follows: Inhibition of isolated kinases. The experiment is classed as biochemical. The note with it: compound @ 10 μM.
Excerpt: as §3

Another experiment concerns the target Pyk2(h) (Homo sapiens, UniProt Q14289). Put plainly: Inhibition of isolated kinases. Format: biochemical. The note with it: compound @ 10 μM.
Excerpt: as §3

The target of a further experiment is Fyn(h) (Homo sapiens, UniProt P06241). Put plainly: Inhibition of isolated kinases. The experiment is classed as biochemical. The note with it: compound @ 10 μM.
Excerpt: as §3

For the next experiment, the target named is Lck(h) (Homo sapiens, UniProt P06239). The experiment is described as follows: Inhibition of isolated kinases. Format: biochemical. The note with it: compound @ 10 μM.
Excerpt: as §3

For another experiment, the target named is EGFR(h) (Homo sapiens, UniProt P00533). The experiment is described as follows: Inhibition of isolated kinases. The note with it: compound @ 10 μM. The experiment is classed as biochemical.
Excerpt: as §3

The next experiment addresses Lyn(h) (Homo sapiens, UniProt P07948). The experiment is described as follows: Inhibition of isolated kinases. The experiment is classed as biochemical. The note with it: compound @ 10 μM.
Excerpt: as §3

The next experiment has as its target PDGFRβ(h) (Homo sapiens, UniProt P09619). The experiment is described as follows: Inhibition of isolated kinases. The note with it: compound @ 10 μM. Format: biochemical.
Excerpt: as §3

Another experiment addresses MAPK2(h) (Homo sapiens, UniProt P28482). The experiment is described as follows: Inhibition of isolated kinases. Format: biochemical. The note with it: compound @ 10 μM.
Excerpt: as §3

The next experiment concerns the target Yes(h) (Homo sapiens, UniProt P07947). Put plainly: Inhibition of isolated kinases. Format: biochemical. The note with it: compound @ 10 μM.
Excerpt: as §3

Another experiment concerns the target CHK1(h) (Homo sapiens, UniProt O14757). Put plainly: Inhibition of isolated kinases. The note with it: compound @ 10 μM. Format: biochemical.
Experiment [1] deals with PDGF receptor tyrosine kinase Y572/574. The experiment is described as follows: PDGF receptor autophosphorylation in cells. Format: cell-based. The note with it: c-Src/NIH-3T3 cells; FIG. 7. The protocol:
as §1, §2
This is thought not to be a direct Src substrate in cells.

Pyk2(h), sequence (Q14289 whole entry): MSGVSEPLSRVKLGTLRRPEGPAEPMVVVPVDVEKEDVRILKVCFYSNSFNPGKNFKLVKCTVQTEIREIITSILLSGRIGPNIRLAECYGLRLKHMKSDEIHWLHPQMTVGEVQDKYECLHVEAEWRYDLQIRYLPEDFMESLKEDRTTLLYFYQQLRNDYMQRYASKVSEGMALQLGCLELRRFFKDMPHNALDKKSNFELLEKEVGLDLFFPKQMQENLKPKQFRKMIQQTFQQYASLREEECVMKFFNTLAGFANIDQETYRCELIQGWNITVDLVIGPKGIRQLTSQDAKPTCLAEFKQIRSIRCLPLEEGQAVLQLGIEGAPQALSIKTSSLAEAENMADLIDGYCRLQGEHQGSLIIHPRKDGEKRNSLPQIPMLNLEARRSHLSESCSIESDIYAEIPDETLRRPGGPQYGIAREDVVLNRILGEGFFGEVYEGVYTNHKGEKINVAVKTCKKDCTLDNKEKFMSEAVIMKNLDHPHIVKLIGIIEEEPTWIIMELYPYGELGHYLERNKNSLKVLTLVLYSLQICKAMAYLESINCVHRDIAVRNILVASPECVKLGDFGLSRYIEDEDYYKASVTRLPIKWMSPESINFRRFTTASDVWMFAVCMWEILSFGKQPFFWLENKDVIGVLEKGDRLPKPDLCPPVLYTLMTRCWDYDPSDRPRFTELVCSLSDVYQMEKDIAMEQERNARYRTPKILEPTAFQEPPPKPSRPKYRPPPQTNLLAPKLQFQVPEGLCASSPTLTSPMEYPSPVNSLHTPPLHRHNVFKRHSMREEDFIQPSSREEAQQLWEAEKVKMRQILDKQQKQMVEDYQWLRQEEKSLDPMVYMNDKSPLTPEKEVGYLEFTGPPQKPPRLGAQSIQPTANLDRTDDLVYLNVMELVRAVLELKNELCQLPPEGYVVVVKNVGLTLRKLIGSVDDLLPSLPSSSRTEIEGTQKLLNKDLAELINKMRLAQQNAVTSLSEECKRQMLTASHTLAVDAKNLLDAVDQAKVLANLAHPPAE
Abl(h), sequence (P00519 whole entry): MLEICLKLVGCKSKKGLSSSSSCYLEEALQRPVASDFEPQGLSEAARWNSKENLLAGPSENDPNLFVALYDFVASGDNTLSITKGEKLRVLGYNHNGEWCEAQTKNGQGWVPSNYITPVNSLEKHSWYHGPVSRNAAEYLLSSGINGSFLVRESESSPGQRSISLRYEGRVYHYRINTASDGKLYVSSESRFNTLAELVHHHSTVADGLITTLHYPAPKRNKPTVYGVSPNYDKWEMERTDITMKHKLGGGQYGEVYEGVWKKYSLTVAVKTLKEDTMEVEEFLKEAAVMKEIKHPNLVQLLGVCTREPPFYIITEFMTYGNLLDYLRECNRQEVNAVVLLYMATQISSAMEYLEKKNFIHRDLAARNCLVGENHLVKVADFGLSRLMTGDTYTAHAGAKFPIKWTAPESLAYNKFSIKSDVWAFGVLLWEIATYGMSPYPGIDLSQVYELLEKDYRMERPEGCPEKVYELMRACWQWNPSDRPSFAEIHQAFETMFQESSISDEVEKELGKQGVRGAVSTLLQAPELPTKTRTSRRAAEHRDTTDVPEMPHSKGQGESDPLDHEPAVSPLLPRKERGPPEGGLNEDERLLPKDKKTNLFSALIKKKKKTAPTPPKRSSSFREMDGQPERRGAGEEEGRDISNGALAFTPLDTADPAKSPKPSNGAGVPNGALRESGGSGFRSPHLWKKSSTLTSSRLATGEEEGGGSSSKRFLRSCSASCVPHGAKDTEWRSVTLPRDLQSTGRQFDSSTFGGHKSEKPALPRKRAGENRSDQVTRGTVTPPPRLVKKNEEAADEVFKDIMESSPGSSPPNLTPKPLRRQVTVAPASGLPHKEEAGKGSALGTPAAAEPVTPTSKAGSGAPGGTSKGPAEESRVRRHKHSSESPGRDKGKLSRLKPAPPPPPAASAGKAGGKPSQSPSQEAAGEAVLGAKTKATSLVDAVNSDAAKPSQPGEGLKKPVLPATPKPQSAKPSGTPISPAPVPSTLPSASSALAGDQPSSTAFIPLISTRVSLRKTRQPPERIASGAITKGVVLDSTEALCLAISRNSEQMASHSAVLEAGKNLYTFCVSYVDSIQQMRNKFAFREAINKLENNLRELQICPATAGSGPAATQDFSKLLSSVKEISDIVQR
Lyn(h), sequence (P07948 whole entry): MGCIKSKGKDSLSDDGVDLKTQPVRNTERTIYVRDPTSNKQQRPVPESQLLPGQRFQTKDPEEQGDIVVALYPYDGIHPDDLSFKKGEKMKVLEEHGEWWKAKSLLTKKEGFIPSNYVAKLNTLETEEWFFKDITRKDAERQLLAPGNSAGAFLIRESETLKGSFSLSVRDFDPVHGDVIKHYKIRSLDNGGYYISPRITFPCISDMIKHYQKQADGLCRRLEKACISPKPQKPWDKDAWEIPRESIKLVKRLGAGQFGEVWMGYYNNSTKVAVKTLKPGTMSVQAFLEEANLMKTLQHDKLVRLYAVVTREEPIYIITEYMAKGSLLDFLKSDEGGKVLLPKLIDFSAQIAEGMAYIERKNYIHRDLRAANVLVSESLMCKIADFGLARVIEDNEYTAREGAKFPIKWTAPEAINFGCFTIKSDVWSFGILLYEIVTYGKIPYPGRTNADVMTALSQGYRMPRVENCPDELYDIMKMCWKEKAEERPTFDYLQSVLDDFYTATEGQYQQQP

`O=C(Cc1ccc(-c2ccc(OCCN3CCOCC3)cc2)cn1)NCc1ccccc1` [KX2-391]: the “phosphorylation of FAK Tyr 925 (Src trans-phosphorylation)” value in the experiment on FAK Tyr 925 was “inhibited”. For the same compound, the “phosphorylation of She Y239/240 (Src trans-phosphorylation)” value in the experiment on She Y239/240 is recorded as “inhibited”. Also, in the experiment on FAK Y397, the “FAK autophosphorylation (Y397)” value is on record as “no inhibition”. Besides, the “phosphorylation of Paxillin Y-31 (Src trans-phosphorylation)” value with Paxillin Y-31 is on record as “inhibited”. The “percent activity of isolated kinase relative to control (untreated)” value is listed as 100% in the experiment with PI3 kinase; 120% at Abl(h); 108% at ZAP-70(h); 112% at IR(h); 101% on IGF-1R(h); 94% on FGFR2(h). Moreover, the “percent activity of isolated kinase relative to control (untreated)” value on PKCα(h) turned out to be 111%; at Pyk2(h), 97%; at Fyn(h), 85%; on Lck(h) it was 109%; on EGFR(h), 134%; on Lyn(h), 113%. The “percent activity of isolated kinase relative to control (untreated)” value on PDGFRβ(h) turned out to be 110%; at MAPK2(h), 112%; on Yes(h) it was 92%; at CHK1(h) it was 105%. For the same compound, the “PDGF receptor autophosphorylation (Y572/574)” value in experiment [1] is “Some effect”.

The values are drawn from patent publication US20210252008A1, “BIARYL COMPOSITIONS AND METHODS FOR MODULATING A KINASE CASCADE” (Athenex, Inc., priority 2004, published 2021).
